By MIC is commonly meant the least concentration at which growth counts as inhibited.

The structures appear in SMILES notation. Calls of active or inactive are those of the source. The calls are words filed in the database; no cut-off is given here. Starred links: 1 amine or outer side, 2 acyl side, 3 side chain; linkers in the order of their positions; H or OH if unused. Positions of bridges follow the written chain, without caps; N, C: chain ends. Non-standard residues stand in square brackets, D forms with d. Residues, ends and D or L forms follow the SMILES beside them. X1 = C[C@@](CCCCC=[*:3])(N[*:1])C(=O)[*:2]; hArg = N=C(N)NCCCC[C@H](N)C(=O)O

Data set [1] can be described thus: Hemolytic activity at human Erythrocyte assessed as hemolysis at 100 microg/ml. Particulars: erythrocytes, at 100 µg/mL, read-out: Activity. It counts as toxicity, cell-based.
Data set [2] deals with Peritoneal macrophage. As to the kind of experiment: Antiinflammatory activity in mouse Peritoneal macrophage cells assessed as inhibition of LPS-induced IL-6 production at 20 microg/ml incubated for 6 hrs by ELISA analysis. It is filed as functional, cell-based. As to conditions: dose 20.0 µg/ml. Background: ELISA stands for enzyme-linked immunosorbent assay.
In data set [3] the test system is Peritoneal macrophage. Nature of the data set: Antiinflammatory activity in mouse Peritoneal macrophage cells assessed as inhibition of LPS-induced TNF-alpha production at 20 microg/ml incubated for 6 hrs by ELISA analysis. It counts as functional, cell-based. As to conditions: dose 20.0 µg/ml.
Data set [4] deals with Staphylococcus aureus. As to the kind of experiment: Antimicrobial activity against Staphylococcus aureus CMCC 26003 at 5 times MIC measured at 180 mins. It is filed as functional, organism-based.
For data set [5], the target named is Trypsin (Homo sapiens, UniProt P07477+P07478+P35030). As to the kind of experiment: Stability of compound assessed as trypsin (unknown origin) mediated drug degradation […] measured after 24 hrs by RP-HPLC analysis. As to conditions: read-out: Activity. It is filed as ADME, protein assay.
Data set [6] has as its system Peritoneal macrophage. As to the kind of experiment: Antiinflammatory activity in mouse Peritoneal macrophage cells assessed as inhibition of LPS-induced IL-6 production my measuring fold change at 20 microg/ml incubated for 6 hrs by ELISA analysis. It is filed as functional. As to conditions: dose 20 µg/ml.
In data set [7] the test system is Staphylococcus aureus. Nature of the data set: Antimicrobial activity against Staphylococcus aureus CMCC 26003 assessed as reduction in microbial growth incubated for 18 hrs by broth microdilution method. It is filed as functional. On the technique in general: Dilution methods test growth across graded concentrations, often in twofold steps.
Data set [8] has as its system Staphylococcus aureus. Nature of the data set: Antimicrobial activity against Staphylococcus aureus CMCC 26003 at 5 times MIC by time kill assay. It counts as functional, organism-based. Particulars: time 180.0 min.
The test system of data set [9] is Staphylococcus aureus. Nature of the data set: Antimicrobial activity against Staphylococcus aureus ATCC 43300 assessed as reduction in microbial growth incubated for 18 hrs by broth microdilution method. It counts as functional.
Data set [10] concerns Pseudomonas aeruginosa. Nature of the data set: Antimicrobial activity against Pseudomonas aeruginosa CMCC10104 assessed as reduction in microbial growth incubated for 18 hrs by broth microdilution method. It counts as functional.
Data set [11] relates to Enterococcus faecium. As to the kind of experiment: Antimicrobial activity against Enterococcus faecium 34 assessed as reduction in microbial growth incubated for 18 hrs by broth microdilution method. It counts as functional.
Data set [12] deals with Clostridium perfringens. Nature of the data set: Antimicrobial activity against Clostridium perfringens ATCC 13124 assessed as reduction in microbial growth incubated for 18 hrs by broth microdilution method. It is filed as functional.
The subject of data set [13] is Salmonella enteritidis. As to the kind of experiment: Antimicrobial activity against Salmonella enterica subsp. enterica serovar Enteritidis ATCC 14028 assessed as reduction in microbial growth incubated for 18 hrs by broth microdilution method. It is filed as functional.
In data set [14] the test system is Acinetobacter baumannii. As to the kind of experiment: Antimicrobial activity against Acinetobacter baumannii ATCC19606 assessed as reduction in microbial growth incubated for 18 hrs by broth microdilution method. It is filed as functional.
The subject of data set [15] is Staphylococcus epidermidis. Nature of the data set: Antimicrobial activity against Staphylococcus epidermidis assessed as reduction in microbial growth incubated for 18 hrs by broth microdilution method. It counts as functional.
The test system of data set [16] is Enterococcus faecalis. Nature of the data set: Antimicrobial activity against Enterococcus faecalis ATCC 29217 assessed as reduction in microbial growth incubated for 18 hrs by broth microdilution method. It is filed as functional.
In data set [17] the test system is Staphylococcus aureus. Nature of the data set: Antimicrobial activity against Staphylococcus aureus 08032706 assessed as reduction in microbial growth incubated for 18 hrs by broth microdilution method. It is filed as functional.
In data set [18] the test system is Escherichia coli. As to the kind of experiment: Antimicrobial activity against Escherichia coli CMCC44102 assessed as reduction in microbial growth incubated for 18 hrs by broth microdilution method. It is filed as functional.
Data set [19] relates to Escherichia coli. As to the kind of experiment: Antimicrobial activity against Escherichia coli ATCC 25922 assessed as reduction in microbial growth incubated for 18 hrs by broth microdilution method. It is filed as functional.

With `CC[C@H](C)[C@H](NC(=O)[C@H](CCCCNC(=N)N)NC(=O)[C@H](CO)NC(=O)[C@H](Cc1c[nH]cn1)NC(=O)[C@H](CCCCNC(=N)N)NC(=O)[C@H](CC(C)C)NC(=O)[C@@H](NC(=O)[C@H](CCCCNC(=N)N)NC(=O)CNC(=O)[C@H](CC(C)C)NC(=O)[C@H](CCC(N)=O)NC(=O)[C@H](CCCCNC(=N)N)NC(=O)[C@H](CCCCNC(=N)N)NC(=O)[C@@H](NC(=O)[C@H](CCCCNC(=N)N)NC(=O)[C@H](CCCCNC(=N)N)NC(=O)[C@@H](N)Cc1ccccc1)C(C)C)C(C)C)C(=O)N[C@H](C(=O)N[C@H](C(=O)NCC(=O)NCC(=O)N[C@@H](CCCCNC(=N)N)C(=O)N[C@@H](CCSC)C(=O)N[C@@H](CCCCNC(=N)N)C(=O)N[C@@H](Cc1ccccc1)C(=O)O)C(C)C)[C@@H](C)O` (H-F[hArg][hArg]V[hArg][hArg]QLG[hArg]VL[hArg]HS[hArg]ITVGG[hArg]M[hArg]F-OH), in [1], the hemolysis at 100 microg/ml is less than 5%. Moreover, the outcome in data set [2] and in data set [3] was Active. Also, the result in [4] was inactive. Moreover, in [5], the metabolised at 24 h was roughly 20%.

Regarding `CC[C@H](C)[C@H](NC(=O)[C@H](CCCNC(=N)N)NC(=O)[C@H](CO)NC(=O)[C@H](Cc1c[nH]cn1)NC(=O)[C@H](CCCNC(=N)N)NC(=O)[C@H](CC(C)C)NC(=O)[C@@H](NC(=O)[C@H](CCCNC(=N)N)NC(=O)CNC(=O)[C@H](CC(C)C)NC(=O)[C@H](CCC(N)=O)NC(=O)[C@H](CCCCN)NC(=O)[C@]1(C)CCCC/C=C\CCCC[C@](C)(N)C(=O)N[C@@H](CCCCN)C(=O)N[C@@H](CCCCN)C(=O)N[C@@H](C(C)C)C(=O)N1)C(C)C)C(=O)N[C@H](C(=O)N[C@H](C(=O)NCC(=O)NCC(=O)N[C@@H](CCCNC(=N)N)C(=O)N[C@@H](CCSC)C(=O)N[C@@H](CCCNC(=N)N)C(=O)N[C@@H](Cc1ccccc1)C(=O)O)C(C)C)[C@@H](C)O` (H-[X1]KKV[X1]KQLGRVLRHSRITVGGRMRF-OH; staple (Z) 1-5), in [1], the hemolysis at 100 microg/ml is less than 5%. The result in data set [2] and in data set [3] was Active. Also, the “fold change (FC)” value in data set [6] was determined as 2. Besides, the result in data set [4] was inactive.

Turning to `CC1(C)S[C@@H]2[C@H](NC(=O)[C@H](N)c3ccccc3)C(=O)N2[C@H]1C(=O)O` [AMPICILLIN], the MIC in [7] was less than 0.78 µg/mL; in data set [9], 9.38 µg/mL; in data set [10] it was greater than 100 µg/mL; in data set [11], less than 0.78 µg/mL; in [12], 2.34 µg/mL; in data set [13], 1.17 µg/mL. Moreover, the minimal inhibitory concentration (MIC) was greater than 100 µg/mL in [14]; 2.34 µg/mL in data set [15]; less than 0.78 µg/mL in data set [16]; less than 0.78 µg/mL in data set [17]; 2.34 µg/mL in data set [18]; 2.34 µg/mL in data set [19]. Besides, in data set [8], the AC30 entry is “Active”.

These data come from ChEMBL document CHEMBL6078680, “Improving the Stability and Anti-Infective Activity of Sea Turtle AMPs Using Multiple Structural Modification Strategies” (J Med Chem, 2024).
